# Laboratory results published in US20040237130A1, “Embryogenic culture initiation of douglas-fir by maltose” (Weyerhaeuser Company, priority 2003, published 2004).
# How the values were obtained:
# [1] = system: Douglas-fir explants; test: Initiation of embryonal suspensor masses (ESM) from Douglas-fir explants on BM1 initiation medium; type: cell-based; settings: for Initiation (#) / Initiation (%): sugar 15000 mg/L in semi-solid BM1 initiation medium, 5-6 weeks, dark
# Method: Cones were collected from four mother tree crosses (full-sib families) at a time when the embryos were in the pre-dome and dome stage of development. Cones were transferred on blue ice and stored in plastic bags in a cold room at 0-4° C. until needed for dissections. Seeds were removed from cones and dissected on the same day. After the seeds were removed, they were placed into a beaker containing pre-sterilized water. Seeds were divided into aliquots of 60-80 seeds. Each aliquot was placed into a separate pre-sterilized tea strainer before undergoing the following procedure. First, seeds were agitated in 10% Liqui-nox (+2 droppers full Tween-20 per liter) for 10 minutes. After rinsing the seeds in deionized water (18 megaohms) for 30 minutes, the tea strainers were exposed to 20% (v/v) H2O2 for 10 minutes in a fume hood on a rotary shaker (175 rpm). The H2O2 was diluted just before use with sterile, deionized water. Following application of the H2O2, each strainer was placed into a separate beaker of sterile deionized water, covered with foil, and moved into the laminar flow hood. All subsequent steps were carried out in the laminar flow hood. Each tea strainer was rinsed by agitating 4-8 times in each of 5 separate portions of sterile deionized water. The contents of each tea strainer were then dumped into a large petri dish containing a sterile filter paper and a few millimeters of sterile water (to help keep seeds from drying). Seeds were placed into 60×15 mm sterile petri plates containing 0.2 ml sterile deionized water each. Those seeds not dissected after sterilization were thrown out at the end of the day. Dissections were done in clean laminar flow hoods. Clean gloves were worn throughout the preparatory steps and dissection. Sterile forceps and scalpels were used to carefully split the seed, remove the female gametophyte and nucellus, and to split the female gametophyte. The embryo suspensor was pulled out, but kept attached to (or touching) the female gametophyte. Embryo and gametophyte were placed unto initiation medium BM1 so that the embryo was visible through the petri dish lid. Initiation: Half of the embryos and gametophytes (Group 1) from each cross were placed on a semi-solid BM1 initiation medium (Table 2), the other half (Group 2) were placed on semi-solid BM1 initiation medium in which the maltose was replaced with sucrose (15000 mg/L). The explants were held in an environment at 22°-25 C with a 24 hour dark photoperiod for a time of 5-6 weeks. The length of time depends on the particular genotype being cultured. Embryonal suspensor masses (ESM) (White, translucent, and mucilaginous) were observed beginning 2-3 weeks after inoculation. […] Initiation is defined as growth of an embryonal suspensor mass from an explant. Overall, the percentage of ESMs initiated from explants was 27% for Group A and 18% for Group B. Initiation improved for each of the 4 crosses tested when explants were cultured on initiation medium containing maltose (Group A). Overall, the number of explants initiated increased by 51% for explants cultured on initiation medium containing maltose, compared to explants cultured on initiation medium containing sucrose.
# [2] = system: Douglas-fir embryonal suspensor masses; test: Establishment of embryonal suspensor masses on BM2 maintenance medium; type: cell-based; settings: for Initiation (#) (Establishment Frequencies) / Initiation (%) (Establishment Frequencies) / Initiation (%) (Establishment Frequencies); proportion of established ESMs: sugar 30000 mg/L in solid BM2 maintenance medium, 12-15 subcultures
# Method: Maintenance: After 5-6 weeks, ESMs from Group A were subcultured onto a solid BM2 maintenance medium (Table 2), and ESMs from Group B were subcultured unto a BM2 maintenance medium in which the maltose was replaced with sucrose (30000 mg/L). The maintenance medium differs from the initiation medium in that the growth hormones (both auxins and cytokinins) are reduced by at least a full order of magnitude. Osmolality of this medium was typically raised from that of the initiation medium to about 180 mM/kg or higher (typically within the range of about 180-400 mM/kg) by increasing the concentration of myo-inositol to 0.5% w/v. The temperature and photoperiod were again 22°-25 C. with 24 hours in the dark. ESMs were subcultured every 12 days onto fresh maintenance medium. The number of ESMs established from explants for each group after a total of 12-15 subcultures on maintenance is shown in Table 4. An ESM was considered to be established if it weighed between 250 mg and 500 mg (fresh weight) or if measured 1-2 cms in diameter, after several subcultures. The proportion of established ESMs obtained was 18% for explants in Group A and 11% for explants in Group B. The frequencies of established ESMs improved for each of the 4 crosses tested when explants were cultured on maintenance medium containing maltose (Group A). Overall, the number of established ESMs increased by 51% for explants cultured on maintenance medium containing maltose, compared to explants cultured on maintenance medium containing sucrose.
Compound,Initiation (#) ([1]; Cross 1),Initiation (%) ([1]; Cross 1),Initiation (#) ([1]; Cross 2),Initiation (%) ([1]; Cross 2),Initiation (#) ([1]; Cross 3),Initiation (%) ([1]; Cross 3),Initiation (#) ([1]; Cross 4),Initiation (%) ([1]; Cross 4),Initiation (%) ([1]; Total of 4 crosses (overall)),Initiation (#) ([1]; Total of 4 crosses),Initiation (#) (Establishment Frequencies) ([2]; Cross 1),Initiation (%) (Establishment Frequencies) ([2]; Cross 1),Initiation (#) (Establishment Frequencies) ([2]; Cross 2),Initiation (%) (Establishment Frequencies) ([2]; Cross 2),Initiation (#) (Establishment Frequencies) ([2]; Cross 3),Initiation (%) (Establishment Frequencies) ([2]; Cross 3),Initiation (#) (Establishment Frequencies) ([2]; Cross 4),Initiation (%) (Establishment Frequencies) ([2]; Cross 4),Initiation (#) (Establishment Frequencies) ([2]; Total of 4 crosses),Initiation (%) (Establishment Frequencies); proportion of established ESMs ([2]; Total of 4 crosses),other results
"OC[C@H]1O[C@H](O[C@H]2[C@H](O)[C@@H](O)C(O)O[C@@H]2CO)[C@H](O)[C@@H](O)[C@@H]1O (mixture of isomers) [Group A, maltose]",63 #,46%,30 #,28%,21 #,19%,13 #,12%,27%,127 #,36 #,26%,11 #,10%,20 #,18%,17 #,15%,84 #,18%,"Initiation for each of the 4 crosses tested, compared with sucrose medium ([1]; each of 4 crosses): improved; increase in number of explants initiated compared to initiation medium containing sucrose ([1]; overall, 4 crosses): 51%; frequencies of established ESMs for each of the 4 crosses tested, compared with sucrose medium ([2]; each of 4 crosses): improved; increase in number of established ESMs compared to maintenance medium containing sucrose ([2]; overall, 4 crosses): 51%"
"OC[C@H]1O[C@@](CO)(O[C@H]2O[C@H](CO)[C@@H](O)[C@H](O)[C@H]2O)[C@@H](O)[C@@H]1O [Group B, sucrose, reference compound]",42 #,30%,20 #,19%,14 #,13%,8 #,7%,18%,84 #,20 #,14%,6 #,6%,12 #,11%,13 #,12%,51 #,11%,
